The target of this assay is Caspase-3 (Homo sapiens) (UniProt P42574). Description: caspase-3 inhibitors as false-positive filter, SAR follow-up, counter-screen for UBC13 polyubiquitin inhibitor project, biochemical, luminescence, Caspase-Glo 3/7 (AID 504680). To be noted: recombinant caspase-3, Caspase-Glo luminescence, 60 min. (Counterscreens check selectivity or assay interference.)

Activity calls are given as the source filed them.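 How the source made its calls: active means IC50 below 100 µM in the TR-FRET assay, unless also active in the caspase-3 counter assay; inactive means the rest, including compounds also active in caspase-3.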

Chain of Caspase-3 (Homo sapiens) (P42574 whole entry, looked up): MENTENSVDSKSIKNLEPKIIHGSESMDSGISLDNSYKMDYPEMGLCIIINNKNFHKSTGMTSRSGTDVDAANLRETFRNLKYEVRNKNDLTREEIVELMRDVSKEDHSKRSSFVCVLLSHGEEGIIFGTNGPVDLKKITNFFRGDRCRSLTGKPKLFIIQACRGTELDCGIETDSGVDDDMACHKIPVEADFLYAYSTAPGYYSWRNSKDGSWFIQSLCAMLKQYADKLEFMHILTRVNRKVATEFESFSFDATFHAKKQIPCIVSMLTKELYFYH

As to `O=C(NCC1CCN(Cc2ccccc2F)CC1)C1CCCN(c2ncnc3c2nc2n3CCCCC2)C1` (centres undefined), the IC50 (usually the concentration at which inhibition is half-maximal) was > 100 µM (inactive).

For the compound `O=C1c2cccc3cccc(c23)C(=O)N1CCN1CCN(CC(O)COc2ccc3ccccc3c2)CC1` (centres undefined), the IC50 is > 100 µM (inactive). With `O=C(NCCCN1CCN(c2ccccc2)CC1)C1CCCN(c2ncnc3c2nc2n3CCCCC2)C1` (centres undefined), the IC50 was > 100 µM (inactive). With `O=C(c1ccco1)N1CCN(C(=O)C2CCN(c3ncnc4c3nc3n4CCCCC3)CC2)CC1`, the IC50 was > 100 µM (inactive). Next, `Cc1ccc(C)c(CN2CCC(CNC(=O)C3CCCN(c4ncnc5c4nc4n5CCCCC4)C3)CC2)c1` (centres undefined): > 100 µM (inactive). Next, `CCCCOC(=O)c1cccc(NC(=O)CCCCCN2C(=O)c3ccccc3C2=O)c1`: > 100 µM (inactive).

Turning to `CC(=O)c1ccccc1OCC(O)CN1CCN(CCN2C(=O)c3cccc4cccc(c34)C2=O)CC1` (centres undefined), the IC50 was > 100 µM (inactive).

As to `Cc1cc(OCC(O)CN2CCN(CCN3C(=O)c4cccc5cccc(c45)C3=O)CC2)ccc1C(C)C` (centres undefined), the IC50 is > 100 µM (inactive). Next, `Cc1ccc2c(c1)C1CN(C)CCC1N2C(=O)CCCN1C(=O)c2cccc3cccc(c23)C1=O` (centres undefined): > 100 µM (inactive); `CCOc1cccc2sc(N(CCCN(C)C)C(=O)c3ccc(S(=O)(=O)N(C)Cc4ccccc4)cc3)nc12`: > 100 µM (inactive). On to `CC1CC(C)CN(C(=O)C2CCN(c3ncnc4c3nc3n4CCCCC3)CC2)C1` (centres undefined), for which the IC50 is > 100 µM (inactive). As for `CCCN1CCN(C(=O)C2CCN(c3ncnc4c3nc3n4CCCCC3)CC2)CC1`, the IC50 was > 100 µM (inactive). Next, `O=C(c1ccc(S(=O)(=O)N2CCCC2)cc1)N1CCC(CN2C(=O)c3cccc4cccc(c34)C2=O)CC1`: > 100 µM (inactive); `CCOC(=O)c1c(NC(=O)COc2ccccc2C#N)sc2c1CC(C)(C)NC2(C)C`: > 100 µM (inactive). As to `O=C(CCCCCN1C(=O)c2ccccc2C1=O)NCc1ccccc1`, the IC50 was > 100 µM (inactive). Regarding `Cc1ccc(C)c(OCC(O)CN2CCN(CCN3C(=O)c4cccc5cccc(c45)C3=O)CC2)c1` (centres undefined), the IC50 was > 100 µM (inactive). Next, `CCCOC(=O)c1ccc(NC(=O)CCCCCN2C(=O)c3ccccc3C2=O)cc1`: > 100 µM (inactive).

With `CCN(Cc1ccccc1)S(=O)(=O)c1ccc(C(=O)N(CCCN(C)C)c2nc3cc(C)cc(C)c3s2)cc1`, the IC50 was > 100 µM (inactive). Next, `O=C(CCCCCN1C(=O)c2ccccc2C1=O)NCc1ccco1`: > 100 µM (inactive); `O=C(CCCCCN1C(=O)c2ccccc2C1=O)Nc1ccc(S(=O)(=O)Nc2ncccn2)cc1`: > 100 µM (inactive); `O=C(C1CCN(c2ncnc3c2nc2n3CCCCC2)CC1)N1CCC(Cc2ccccc2)CC1`: > 100 µM (inactive). Next, `O=C(C1CCN(c2ncnc3c2nc2n3CCCCC2)CC1)N1CCN(Cc2ccccc2)CC1`: > 100 µM (inactive); `CN(C)CCCn1c(SCC(=O)Nc2nc(-c3cccc(Br)c3)cs2)nc2ccccc2c1=O`: > 100 µM (inactive). Next, `Cc1ccc(OCC(O)CN2CCN(CCN3C(=O)c4cccc5cccc(c45)C3=O)CC2)c(C)c1` (centres undefined): > 100 µM (inactive); `CCCCN(CC)S(=O)(=O)c1ccc(C(=O)N(CCCN(C)C)c2nc3cc(C)cc(C)c3s2)cc1`: > 100 µM (inactive); `CN(C)CCCN(C(=O)c1ccc(S(=O)(=O)N2CCCCC2)cc1)c1nc2cc3c(cc2s1)OCO3`: > 100 µM (inactive). Turning to `Cc1[nH]c2c(Cl)c(Cl)ccc2c1CCNC(=O)CCCCCN1C(=O)c2ccccc2C1=O`, the IC50 is > 100 µM (inactive). Next, `O=C(CCCCCN1C(=O)c2ccccc2C1=O)NCCc1nc2ccccc2[nH]1`: > 100 µM (inactive); `C=CCc1ccccc1OCC(O)CN1CCN(CCN2C(=O)c3cccc4cccc(c34)C2=O)CC1` (centres undefined): > 100 µM (inactive); `O=C1c2cccc3cccc(c23)C(=O)N1CCN1CCN(CC(O)COc2ccc(C3CCCCC3)cc2)CC1` (centres undefined): > 100 µM (inactive). Next, `O=C(C1CCN(c2ncnc3c2nc2n3CCCCC2)CC1)N1CCN(c2ccccn2)CC1`: > 100 µM (inactive). Next, `Cc1ccc2nc(N(CCCN(C)C)C(=O)c3ccc(S(=O)(=O)N4CCc5ccccc5C4)cc3)sc2c1`: > 100 µM (inactive); `Cc1cccc(C)c1NC(=O)Cn1c(=O)n(CCCC(=O)NC2CCN(Cc3ccccc3)CC2)c(=O)c2ccccc21`: > 100 µM (inactive); `Cc1ccccc1CN1CCC(CNC(=O)C2CCCN(c3ncnc4c3nc3n4CCCCC3)C2)CC1` (centres undefined): > 100 µM (inactive). For the compound `COc1ccc(C)c2sc(N(CCCN(C)C)C(=O)c3ccc(S(=O)(=O)N(C)C)cc3)nc12`, the IC50 is > 100 µM (inactive). In the case of `Cc1cc(C)c2sc(N(CCCN(C)C)C(=O)c3ccc(S(=O)(=O)N4CCc5ccccc5C4)cc3)nc2c1`, the IC50 was > 100 µM (inactive). `CN(C)CCCN(C(=O)c1ccc(S(=O)(=O)N2CCCC2)cc1)c1nc2ccc(Br)cc2s1`: the IC50 is > 100 µM (inactive).

`O=C(CCCCCN1C(=O)c2ccccc2C1=O)Nc1nc(C2CC2)cs1`: the IC50 was > 100 µM (inactive). On to `COc1cccc(NC(=O)CCCCCN2C(=O)c3cccc([N+](=O)[O-])c3C2=O)c1`, for which the IC50 was > 100 µM (inactive). For `NNC(=O)c1ccc(CN2C(=O)c3cccc4cccc2c34)cc1`, the IC50 is > 100 µM (inactive). Next, `COc1ccc(NC(=O)CCCCCN2C(=O)c3cccc([N+](=O)[O-])c3C2=O)cc1`: > 100 µM (inactive); `O=C(NCC1CCN(Cc2ccc(Cl)cc2)CC1)C1CCCN(c2ncnc3c2nc2n3CCCCC2)C1` (centres undefined): > 100 µM (inactive); `Cc1ccccc1OCC(O)CN1CCN(CCN2C(=O)c3cccc4cccc(c34)C2=O)CC1` (centres undefined): > 100 µM (inactive). On to `CCOc1cccc2sc(N(CCCN(C)C)C(=O)c3ccc(S(=O)(=O)N4CCc5ccccc5C4)cc3)nc12`, for which the IC50 was > 100 µM (inactive). Next, `O=C(CCCCCN1C(=O)c2ccccc2C1=O)Nc1ccc(S(=O)(=O)N2CCCCC2)cc1`: > 100 µM (inactive). On to `O=C(CCCCCN1C(=O)c2cccc([N+](=O)[O-])c2C1=O)NCc1ccccc1`, for which the IC50 was > 100 µM (inactive). Next, `CN(C)CCCN(C(=O)c1ccc(S(=O)(=O)N2CCCCCC2)cc1)c1nc2ccc(Br)cc2s1`: > 100 µM (inactive). Next, `Cc1ccc(-c2oc3ncnc(N)c3c2-c2ccc(C)cc2)cc1`: > 100 µM (inactive); `O=C1c2cccc3cccc(c23)C(=O)N1CCN1CCN(CC(O)COCc2ccc(Cl)cc2)CC1` (centres undefined): > 100 µM (inactive). Turning to `CCOc1ccc2nc(N(CCCN(C)C)C(=O)c3ccc(C(=O)c4ccccc4)cc3)sc2c1`, the IC50 is > 100 µM (inactive). Next, `COc1ccc2sc(N(CCCN(C)C)C(=O)c3ccc(S(=O)(=O)N(C)Cc4ccccc4)cc3)nc2c1`: > 100 µM (inactive). Next, `CCOc1cccc2sc(N(CCCN(C)C)C(=O)c3ccc(S(=O)(=O)N(CC)Cc4ccccc4)cc3)nc12`: > 100 µM (inactive); `O=C(CCCCn1c(=O)c2ccccc2n(Cc2ccccc2)c1=O)NC1CCN(Cc2ccccc2)CC1`: > 100 µM (inactive). Turning to `Cc1ccc(NC(=O)C2CCN(c3ncnc4c3nc3n4CCCCC3)CC2)cc1Cl`, the IC50 was > 100 µM (inactive).

The values are drawn from PubChem BioAssay AID504680 (Sanford-Burnham Center for Chemical Genomics, 2011).
